The test system of the assay is phospho-serine 2056 DNA-PK in HCT116 cells. The experiment in a line: DNA-PK phosphorylation at serine 2056 (cellular), ELISA in bleomycin-treated HCT116 cells. It is filed as cell-based. The settings on record: read-out: IC50 pDNA-PK. The method in brief:
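Chemiluminescent ELISA read-out; phospho-specific signal normalised to total DNA-PKcs. Cells (HCT116) exposed 6 h to test compound plus 10 μM bleomycin to induce double-strand breaks; DMSO control served as blank.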

Setting [1] is: Homo sapiens, HCT-116, phospho-serine 2056 DNA-PK, bleomycin-treated HCT116 cells, class symbols A-D.
Where [2] appears, read: Homo sapiens, HCT-116, phospho-serine 2056 DNA-PK, bleomycin-treated HCT116 cells.
The mark [3] stands for this setting: Homo sapiens, HCT-116, cellular DNA-PK phosphorylation at serine 2056, HCT116 cells.
[4] abbreviates: cellular, HCT116 cells, 10 μM bleomycin, six hours.
Where [5] appears, read: Homo sapiens, HCT-116, 6 h, cellular, HCT116 cells, 10 μM bleomycin, six hours.

Like-named read-outs stand apart in the source and are kept apart here.

Turning to `CN(C)CCOc1ccc(C(O)c2ccc(F)c(-c3ncnc4cc(N5CCOCC5)ccc34)c2)nn1` (stereo not shown) [Example 133, [6-(2-Dimethyl-amino-ethoxy)-pyridazin-3-yl]-[4-fluoro-3-(7-morpholin-4-yl-quinazolin-4-yl)-phenyl]methanol], under setting [1], the IC50 lay within 5 to 10 µM.

In the case of `[2H]C1([2H])OC([2H])([2H])C([2H])([2H])N(c2ccc3c(-c4cc(C(O)c5nccnc5C)ccc4F)ncnc3c2)C1([2H])[2H]` (stereo not shown) [Example 238, [4-Fluoro-3-[7-(2,2,3,3,5,5,6,6-octadeuterio-morpholin-4-yl)quinazolin-4-yl]phenyl]-(3-methyl-pyrazin-2-yl)-methanol], under setting [2], the IC50 is less than 0.5 µM.

In the case of `COc1nccnc1C(O)c1cc(-c2ncnc3cc(N4CCOCC4)ccc23)ccc1Cl` (stereo not shown) [Example 410, [2-Chloro-5-(7-morpholin-4-yl-quinazolin-4-yl)-phenyl]-(3-methoxy-pyrazin-2-yl)-methanol (Ena 2)], under setting [3], the IC50 is less than 0.5 µM.

In the case of `OC(c1cccnn1)c1cc(-c2ncnc3cc(N4CCOCC4)ccc23)c(F)cc1Cl` (stereo not shown) [Example 30, [2-Chloro-4-fluoro-5-(7-morpholin-4-yl-quinazolin-4-yl)phenyl]-pyridazin-3-ylmethanol], the 50% inhibitory concentration (IC50) under setting [4] was less than 0.5 µM.

`NC(=O)c1cncc(C(C(N)=O)c2ccc(F)c(-c3ncnc4cc(N5CCOCC5)ccc34)c2)n1` (stereo not shown) [Example 292, 6-{Carbamoyl-[4-fluoro-3-(7-morpholin-4-yl-quinazolin-4-yl)-phenyl]methyl}-pyrazine-2-carboxylic acid amide]: under setting [2], the IC50 was in the range of 10 to 30 µM.

Take `Cc1nccnc1C(O)c1cc(-c2ncnc3cc(N4CCOCC4)ccc23)ccc1F` (stereo not shown) [Example 393, [2-Fluoro-5-(7-morpholin-4-yl-quinazolin-4-yl)-phenyl]-(3-methyl-pyrazin-2-yl)-methanol]: under setting [3], the IC50 lay within 5 to 10 µM.

Take `Cn1c(C(O)c2cc(-c3ncnc4cc(N5CCOCC5)ccc34)c(F)cc2Cl)cccc1=O` (stereo not shown) [Example 435, 6-{[2-Chloro-4-fluoro-5-(7-morpholin-4-yl-quinazolin-4-yl)-phenyl]hydroxy-methyl}-1-methyl-1H-pyridin-2-one]: the IC50 (cellular DNA-PK phosphorylation at serine 2056, HCT116 cells) was less than 0.5 µM.

`Cc1cnc(C(O)c2cc(-c3ncnc4cc(N5CCOCC5)ccc34)c(F)cc2F)c(C)n1` (stereo not shown) [Example 355, [2,4-Difluoro-5-(7-morpholin-4-yl-quinazolin-4-yl)-phenyl]-(3,5-dimethyl-pyrazin-2-yl)methanol]: the IC50 under setting [2] fell in the range of 0.5 to 5 µM.

With `OC(c1ccc(F)c(-c2ncnc3cc(N4CCOCC4)sc23)c1)c1nccs1` (stereo not shown) [Example 145, [4-Fluoro-3-(6-morpholin-4-yl-thieno[3,2-d}-pyrimidin-4-yl)-phenyl]thiazol-2-yl-methanol], the IC50 under setting [1] lay in the range of 0.5 to 5 µM.

For `Cc1ccc(C(O)c2ccc(F)c(-c3ncnc4cc(N5CCOCC5)ccc34)c2)nn1` (stereo not shown) [Example 70, [4-Fluoro-3-(7-morpholin-4-yl-quinazolin-4-yl)phenyl]-(6-methylpyridazin-3-yl)methanol], the IC50 under setting [5] was 0.5 to 5 µM.

`OC(c1cnccn1)c1cc(-c2ncnc3cc(N4CCOCC4)ccc23)c(F)cc1Cl` (stereo not shown) [Example 34, [2-Chloro-4-fluoro-5-(7-morpholin-4-yl-quinazolin-4-yl)phenyl]-pyrazin-2-ylmethanol]: under setting [5], the IC50 was 5 to 10 µM.

For the molecule `OCc1csc(C(O)c2cc(-c3ncnc4cc(N5CCOCC5)ncc34)c(F)cc2Cl)n1` (stereo not shown) [Example 141, [2-Chloro-4-fluoro-5-(7-morpholin-4-yl-pyrido[4,3-d}-pyrimidin-4-yl)-phenyl]-(4-hydroxymethyl-thiazol-2-yl)-methanol], the IC50 under setting [1] fell in the range of 10 to 30 µM.

Take `COc1cnc(C(O)c2ccc(F)c(-c3ncnc4cc(N5CCOCC5)ccc34)c2)c(Cl)c1` (stereo not shown) [Example 31, (3-Chloro-5-methoxy-pyridin-2-yl)-[4-fluoro-3-(7-morpholin-4-yl-quinazolin-4-yl)phenyl]-methanol]: the half-maximal inhibitory concentration (IC50) under setting [5] was less than 0.5 µM.

`OC(c1ccc(F)c(-c2ncnc3cc(N4CCOCC4)ccc23)c1)c1ncccc1OC(F)F` (stereo not shown) [Example 81, (3-Difluoromethoxy-pyridin-2-yl)-[4-fluoro-3-(7-morpholin-4-yl-quinazolin-4-yl)-phenyl]methanol]: the IC50 under setting [5] was less than 0.5 µM.

Consider `Cn1ncc2c(C(O)c3cc(-c4ncnc5cc(N6CCOCC6)ccc45)ccc3F)ncnc21` (stereo not shown) [Example 391, [2-Fluoro-5-(7-morpholin-4-yl-quinazolin-4-yl)-phenyl]-(1-methyl-1H-pyrazolo[3,4-d}-pyrimidin-4-yl)-methanol], for which the IC50 under setting [3] was in the range of 0.5 to 5 µM.

Turning to `OC(c1ccc2ncnn2c1)c1cc(-c2ncnc3cc(N4CCOCC4)ccc23)c(F)cc1F` (stereo not shown) [Example 222, [2,4-Difluoro-5-(7-morpholin-4-yl-quinazolin-4-yl)-phenyl]-[1,2,4]-triazolo[1,5-a]pyridin-6-ylmethanol], the IC50 under setting [1] is 0.5 to 5 µM.

`Cn1cnc2c(C(O)c3ccc(F)c(-c4ncnc5cc(N6CCOCC6)ccc45)c3)ncnc21` (stereo not shown) [Example 420, [4-Fluoro-3-(7-morpholin-4-yl-quinazolin-4-yl)-phenyl]-(9-methyl-9H-purin-6-yl)-methanol]: the IC50 under setting [3] fell in the range of 5 to 10 µM.

With `COc1cc(Cl)nnc1C(O)c1ccc(F)c(-c2ncnc3cc(N4CCOCC4)ccc23)c1` (stereo not shown) [Example 10, (6-Chloro-4-methoxy-pyridazin-3-yl)-[4-fluoro-3-(7-morpholin-4-yl-quinazolin-4-yl)phenyl]-methanol], the 50% inhibitory concentration (IC50) under setting [5] is less than 0.5 µM.

For `COC(c1ccc(F)c(-c2ncnc3cc(N4CCOCC4)ccc23)c1)c1nccs1` (stereo not shown) [Example 177, 4-[2-Fluoro-5-(-methoxythiazol-2-ylmethyl)phenyl]-7-morpholin-4-yl-quinazoline], under setting [1], the IC50 is 10 to 30 µM.

On to `NCCn1nc(C(O)c2cc(-c3ncnc4cc(N5CCOCC5)ccc34)c(F)cc2Cl)ccc1=O` (stereo not shown) [Example 94, 2-(2-Amino-ethyl)-6-{[2-Chloro-4-fluoro-5-(7-morpholin-4-yl-quinazolin-4-yl)phenyl]-hydroxy-methyl}-2H-pyridazin-3-one], for which the IC50 under setting [5] fell in the range of 10 to 30 µM.

Consider `Cc1nccnc1C(O)c1ccc(F)c(-c2ncnc3cc(N4CCOCC4)c(F)cc23)c1` (stereo not shown) [Example 283, [4-Fluoro-3-(6-fluoro-7-morpholin-4-yl-quinazolin-4-yl)-phenyl]-(3-methyl-pyrazin-2-yl)-methanol], for which, under setting [2], the IC50 is 10 to 30 µM.

Take `OC(c1ccc(F)c(-c2ncnc3cc(N4CCOCC4)ccc23)c1)c1ncccc1Cl` (stereo not shown) [Example 465, (3-Chloro-pyridin-2-yl)-[4-fluoro-3-(7-morpholin-4-yl-quinazolin-4-yl)-phenyl]methanol]: the IC50 under setting [3] was less than 0.5 µM.

For the molecule `COc1nnc(C(O)c2cc(-c3ncnc4cc(N5CCOCC5)ccc34)c(F)cc2Cl)cc1C` (stereo not shown) [Example 110, [2-Chloro-4-fluoro-5-(7-morpholin-4-yl-quinazolin-4-yl)-phenyl]-(6-methoxy-5-methylpyridazin-3-yl)methanol], the IC50 under setting [1] fell in the range of 0.5 to 5 µM.

Consider `OC(c1ccc2nccn2n1)c1cc(-c2ncnc3cc(N4CCOCC4)ccc23)c(F)cc1Cl` (stereo not shown) [Example 63, [2-Chloro-4-fluoro-5-(7-morpholin-4-yl-quinazolin-4-yl)phenyl]-imidazo[1,2-b]pyridazin-6-ylmethanol], for which the IC50 under setting [4] lay in the range of 0.5 to 5 µM.

Consider `OC(c1ccc(F)c(-c2ncnc3cc(N4CCOCC4)sc23)c1)c1nccnc1Cl` (stereo not shown) [Example 37, (3-Chloropyrazin-2-yl)-[4-fluoro-3-(6-morpholin-4-ylthieno[3,2-d}pyrimidin-4-yl)phenyl]-methanol], for which, under setting [4], the IC50 was less than 0.5 µM.
